From publication doi:10.1101/836932v1 (biorxiv, 2019) come the findings set out here.

Structures are written as SMILES.

The target in this test is T1, MLLT3 (AF9) (Homo sapiens, UniProt P42568).
T1 sequence (P42568 1-138 limits assumed): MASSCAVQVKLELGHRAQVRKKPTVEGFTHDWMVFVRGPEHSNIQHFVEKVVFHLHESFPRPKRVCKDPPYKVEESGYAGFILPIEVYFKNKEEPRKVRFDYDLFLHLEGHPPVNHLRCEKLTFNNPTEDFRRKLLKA
Kind of test: AlphaScreen. It is filed as binding. Background: In Alpha technology, singlet oxygen from a donor bead excites a nearby acceptor bead.
As usually defined, the IC50 is the concentration at which inhibition is half-maximal. A low value points to greater potency in that assay. `COc1ccc(CNC(=O)N2CCN(c3ccc(C(C)=O)cc3)CC2)cn1` [compound 1, piperazine-1-carboxamide 1] gave an IC50 of 7.8 µM.
`O=C(NCc1ccc(CN2CCCC2)cc1)N1CCN(C(=O)c2cccs2)CC1` [compound 2, piperazine-1-carboxamide 2] came in with an IC50 of 33 µM.
In the case of `CCN(CC)Cc1ccc(CNC(=O)N2CCN(c3ncccn3)CC2)cc1` [compound 3, piperazine-1-carboxamide 3] it was above 100 µM.
